Results taken from ChEMBL document CHEMBL1201862, “PubChem BioAssay data set” (2004).
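Each compound was tested at five concentrations against cells in 96-well plates for 48 hours. GI50 = concentration required for 50% inhibition of growth.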 Activity calls are given as the source filed them. Cut-off read from the data, not from the text of the source: active = GI50 up to about 1.1 µM and inactive = higher.

Assays:
Assay in all cases: inhibition of tumour cell growth, NCI panel, 48 h
DU-145 = test system: DU-145
SF-295 = test system: SF-295
LOX IMVI = test system: LOX IMVI
NCI-H460 = test system: NCI-H460
KM12 = test system: KM12
CAKI-1 = test system: CAKI-1
NCI-H522 = test system: NCI-H522
UACC-257 = test system: UACC-257
K562 = test system: K562
PC-3 = test system: PC-3
MCF7 = test system: MCF7
MDA-MB-435 = test system: MDA-MB-435
OVCAR-4 = test system: OVCAR-4
MDA-N = test system: MDA-N
RPMI-8226 = test system: RPMI-8226
786-0 = test system: 786-0
DMS-114 = test system: DMS-114
KM-20L2 = test system: KM-20L2
LXFL 529 = test system: LXFL 529
XF498 = test system: XF498

Measured: GI50

COc1ccc([C@H]2C=[N+]([O-])O[C@H](OC3CCCC3)[C@@H]2OC(C)=O)cc1OC
inactive: DU-145 29.3 µM | SF-295 > 100 µM | LOX IMVI 15.4 µM | NCI-H460 43.9 µM | KM12 26.4 µM | CAKI-1 14 µM | NCI-H522 5.66 µM | UACC-257 19.7 µM | K562 39.3 µM | PC-3 44.8 µM | MCF7 22.3 µM | MDA-MB-435 25.4 µM | OVCAR-4 33.6 µM | MDA-N 37.8 µM | RPMI-8226 23.5 µM

CCOC(=O)c1csc(NC(=O)CCCC#N)n1
inactive: DU-145 > 100 µM | SF-295 > 100 µM | LOX IMVI > 100 µM | NCI-H460 > 100 µM | KM12 > 100 µM | CAKI-1 > 100 µM | UACC-257 > 100 µM | K562 > 100 µM | PC-3 > 100 µM | MCF7 > 100 µM | MDA-MB-435 > 100 µM | OVCAR-4 > 100 µM | MDA-N > 100 µM | RPMI-8226 > 100 µM

CO/C(=N/N1CC1C(F)(F)F)c1ccncc1 (stereo unspecified)
inactive: DU-145 > 100 µM | SF-295 > 100 µM | NCI-H460 > 100 µM | KM12 > 100 µM | CAKI-1 > 100 µM | NCI-H522 > 100 µM | K562 > 100 µM | PC-3 > 10 µM | MCF7 > 100 µM | MDA-MB-435 > 100 µM | OVCAR-4 > 100 µM | MDA-N > 100 µM | RPMI-8226 > 100 µM

N#CC(=N)c1ncn(-c2ccccc2N)c1N
inactive: DU-145 > 100 µM | SF-295 > 100 µM | LOX IMVI > 100 µM | NCI-H460 > 100 µM | KM12 > 100 µM | CAKI-1 > 100 µM | NCI-H522 > 100 µM | 786-0 > 100 µM | UACC-257 > 100 µM | K562 > 100 µM | PC-3 > 100 µM | MCF7 > 100 µM | MDA-MB-435 > 100 µM | OVCAR-4 > 100 µM | MDA-N > 100 µM | RPMI-8226 > 100 µM

Cc1ccc([N+](=O)[O-])cc1/N=N/C(=O)NNc1cc([N+](=O)[O-])ccc1C
inactive: DU-145 35.3 µM | SF-295 17.9 µM | NCI-H460 > 10 µM | KM12 23.4 µM | CAKI-1 25.9 µM | NCI-H522 15.8 µM | K562 19.7 µM | PC-3 17.6 µM | MCF7 26.4 µM | MDA-MB-435 22.2 µM | MDA-N 26.6 µM | RPMI-8226 30.4 µM

O=C(NNC(=S)NCc1ccccc1)C12CC3CC(CC(C3)C1)C2
inactive: DU-145 85.9 µM | SF-295 34.4 µM | LOX IMVI 35.4 µM | NCI-H460 36.3 µM | KM12 40.6 µM | NCI-H522 > 100 µM | 786-0 96.8 µM | UACC-257 52.5 µM | K562 55.5 µM | PC-3 25.8 µM | MCF7 61.4 µM | MDA-MB-435 87.3 µM | OVCAR-4 76.6 µM | MDA-N 67.9 µM | RPMI-8226 45.1 µM

COc1cc2c(cc1OC)C(Cl)C(c1cc(OC)c(OC)c(OC)c1)=C2Cl (stereo unspecified)
inactive: SF-295 15.2 µM | LOX IMVI 13.1 µM | NCI-H460 14.4 µM | DMS-114 10.8 µM | CAKI-1 9.1 µM | KM-20L2 17.9 µM | NCI-H522 6.01 µM | LXFL 529 11.5 µM | K562 12.4 µM | RPMI-8226 8.71 µM

C1CCC2(CC1)O[C@@H]1[C@@H](O2)[C@@H](O[C@H]2O[C@@H]3COC4(CCCCC4)O[C@H]3[C@@H]3OC4(CCCCC4)O[C@@H]23)O[C@@H]2COC3(CCCCC3)O[C@@H]12
inactive: DU-145 > 100 µM | SF-295 > 100 µM | LOX IMVI > 100 µM | KM12 > 100 µM | CAKI-1 > 100 µM | NCI-H522 > 100 µM | 786-0 > 100 µM | UACC-257 > 100 µM | K562 > 100 µM | PC-3 > 100 µM | MCF7 > 100 µM | MDA-MB-435 > 100 µM | OVCAR-4 > 100 µM | MDA-N > 100 µM | RPMI-8226 36.6 µM

CCOC(=O)CC(NC(=O)c1ccc(/N=N/N(C)C)cc1)C(=O)OCC (stereo unspecified)
inactive: SF-295 > 100 µM | LOX IMVI > 100 µM | NCI-H460 > 100 µM | KM12 > 100 µM | CAKI-1 > 100 µM | NCI-H522 > 100 µM | 786-0 > 100 µM | UACC-257 > 100 µM | LXFL 529 > 100 µM | K562 > 100 µM | OVCAR-4 > 100 µM | RPMI-8226 > 100 µM

CSC1NC(c2ccccc2)=C(C#N)C(=O)N1C1OCC(OC(C)=O)C(OC(C)=O)C1OC(C)=O (stereo unspecified)
inactive: DU-145 > 100 µM | SF-295 > 100 µM | LOX IMVI > 100 µM | NCI-H460 > 100 µM | KM12 > 100 µM | CAKI-1 > 100 µM | NCI-H522 > 100 µM | 786-0 > 100 µM | UACC-257 > 100 µM | K562 > 100 µM | PC-3 > 100 µM | MCF7 > 100 µM | MDA-MB-435 > 100 µM | OVCAR-4 > 100 µM | MDA-N > 100 µM | RPMI-8226 > 100 µM

COc1ccc2c(C)cc(N/N=C/c3sccc3C)nc2c1
inactive: DU-145 6.68 µM | SF-295 14.7 µM | LOX IMVI 7.59 µM | KM12 8.05 µM | NCI-H522 10.2 µM | UACC-257 10.1 µM | PC-3 12.9 µM | MCF7 11.4 µM | MDA-MB-435 16.6 µM | OVCAR-4 20.9 µM | MDA-N 14.3 µM | RPMI-8226 5.69 µM

COC(=O)c1cccc(C(=O)OC)c1
inactive: SF-295 > 100 µM | LOX IMVI > 100 µM | NCI-H460 > 100 µM | KM12 > 100 µM | XF498 > 100 µM | CAKI-1 > 100 µM | NCI-H522 > 100 µM | UACC-257 > 100 µM | LXFL 529 > 100 µM | OVCAR-4 > 100 µM | RPMI-8226 > 100 µM

CCOC(=O)NC(=O)c1cn(CCSCCOC(=O)NCCCCCCNC(=O)OCCSCCn2cc(C(=O)NC(=O)OCC)c(=O)[nH]c2=O)c(=O)[nH]c1=O
inactive: SF-295 > 100 µM | LOX IMVI > 100 µM | NCI-H460 > 100 µM | DMS-114 > 100 µM | CAKI-1 > 100 µM | KM-20L2 > 100 µM | UACC-257 > 100 µM | K562 > 100 µM | OVCAR-4 > 100 µM

CCOC(=O)c1nc2cc(C(F)(F)F)ccc2nc1Oc1ccc(F)cc1
inactive: DU-145 > 100 µM | SF-295 > 100 µM | LOX IMVI > 100 µM | NCI-H460 > 100 µM | KM12 > 100 µM | CAKI-1 > 100 µM | NCI-H522 > 100 µM | 786-0 > 100 µM | UACC-257 > 100 µM | K562 > 100 µM | PC-3 > 100 µM | MCF7 > 100 µM | MDA-MB-435 > 100 µM | OVCAR-4 69.5 µM | MDA-N > 100 µM | RPMI-8226 > 100 µM
